24 compounds from PubChem BioAssay (NCI) can be followed below.

Among the test systems are UACC-257 melanoma; CAKI-1 renal; OVCAR-8 ovarian; HOP-92 NSCLC; SNB-19 CNS; KM12 colon; HCT-116 colon; UO-31 renal; HCC-2998 colon.
Holding throughout (experiment): inhibition of tumour cell growth, NCI panel, 48 h

Each structure is given as a SMILES string.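 48-hour exposure; five concentrations; linearly interpolated endpoints. Abbreviation: GI50, concentration required for 50% inhibition of growth. TGI: concentration producing complete growth inhibition.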

Regarding `COc1cc(CNc2ccc(C(C)C)cc2)cc(OC)c1OC`, the TGI was 61.7 µM in the test on UACC-257 melanoma; 45.1 µM in the test with CAKI-1 renal; 73.4 µM in the test with OVCAR-8 ovarian; 50.2 µM with HOP-92 NSCLC; 99.1 µM with SNB-19 CNS; 34.9 µM in the test with KM12 colon. For the same compound, the TGI with HCT-116 colon was found to be 23.6 µM; in the test on UO-31 renal, 45.3 µM. In addition, the GI50 in the test on CAKI-1 renal was 16.9 µM.

Regarding `O=C(CN1CCN(c2ccccc2)CC1)N1CCc2c([nH]c3ccccc23)C1c1cccnc1` (centres undefined), the TGI in the test on UACC-257 melanoma is greater than 100 µM; in the test on CAKI-1 renal, greater than 72.6 µM; in the test on OVCAR-8 ovarian, greater than 100 µM; with HOP-92 NSCLC it was greater than 66.3 µM; with SNB-19 CNS, greater than 100 µM; in the test on KM12 colon it was greater than 100 µM. The figures for the TGI in the test on HCT-116 colon, with UO-31 renal and in the test with HCC-2998 colon were 21.3 µM, greater than 100 µM and greater than 100 µM, respectively.

Consider `COc1ccc(NC(=O)c2cc(OC)c(OC)c(OC)c2)cc1`, for which the TGI in the test with UACC-257 melanoma, in the test with CAKI-1 renal, in the test on OVCAR-8 ovarian, in the test with HOP-92 NSCLC, in the test on SNB-19 CNS and with KM12 colon was greater than 100 µM each time. Besides, the TGI with HCT-116 colon, in the test with UO-31 renal and in the test on HCC-2998 colon was greater than 100 µM each time.

For `CC(C)CC1=[N+]=C(NC#N)N=C(CCC(=O)Nc2ccccc2[N+](=O)[O-])C1`, the TGI in the test with UACC-257 melanoma, with CAKI-1 renal, in the test on OVCAR-8 ovarian, in the test with HOP-92 NSCLC, in the test with SNB-19 CNS and in the test with KM12 colon was greater than 100 µM throughout. In addition, the TGI in the test on HCT-116 colon, with UO-31 renal and with HCC-2998 colon was greater than 100 µM in each case.

In the case of `COc1cccc(C2c3cc4c(cc3OC(O)(CO)C2C(=O)O)OCO4)c1` (centres undefined) (tested in a mixture with another compound), the TGI in the test on UACC-257 melanoma was greater than 100 µM; in the test with OVCAR-8 ovarian it was greater than 100 µM; in the test with HOP-92 NSCLC it was 79.9 µM; in the test with KM12 colon it was greater than 100 µM; with HCT-116 colon, greater than 100 µM; in the test with UO-31 renal, greater than 100 µM. The TGI with HCC-2998 colon is greater than 100 µM.

`CCCCCCCCCCCCCCCCCCCCCC(=O)Nc1ccn(C2OC(CO)C(O)C2O)c(=O)n1` (centres undefined): the TGI with UACC-257 melanoma, in the test on CAKI-1 renal, in the test with OVCAR-8 ovarian, in the test on HOP-92 NSCLC, in the test with SNB-19 CNS and with KM12 colon was greater than 100 µM each time. Moreover, the TGI with HCT-116 colon, with UO-31 renal and with HCC-2998 colon was greater than 100 µM each time.

For the compound `Cc1cccc(C(C)C)c1NC(=O)C(=O)CC(=O)c1c(C)n([O-])c2ccccc2[n+]1=O`, the TGI in the test with UACC-257 melanoma was 48 µM; in the test on CAKI-1 renal, greater than 100 µM; in the test on OVCAR-8 ovarian it was greater than 100 µM; in the test on HOP-92 NSCLC, greater than 100 µM; in the test with SNB-19 CNS, greater than 100 µM; in the test with KM12 colon it was greater than 100 µM. Besides, the TGI in the test on HCT-116 colon, in the test with UO-31 renal and with HCC-2998 colon was greater than 100 µM throughout.

Consider `CC(=O)Oc1ccc(O)c(O)c1C/C=C(\C)CC/C=C(\C)CC/C=C(\C)CCC=C(C)C`, for which the TGI stood at 2.26 µM with UACC-257 melanoma; 8.03 µM with CAKI-1 renal; 1.79 µM in the test on OVCAR-8 ovarian; 0.886 µM in the test on HOP-92 NSCLC; 2.8 µM with SNB-19 CNS; 11.5 µM in the test on KM12 colon. Besides, the results for the TGI with UO-31 renal and in the test on HCC-2998 colon were 2.74 µM and 2.26 µM, respectively.

On to `COc1ccc(O)c(C#N)c1C#N`, for which the TGI in the test on UACC-257 melanoma, in the test on CAKI-1 renal, in the test with OVCAR-8 ovarian, in the test with SNB-19 CNS, in the test on KM12 colon and with HCT-116 colon was greater than 100 µM throughout. The TGI in the test on UO-31 renal and in the test on HCC-2998 colon was greater than 100 µM throughout.

With `CC/C=C\C/C=C\C/C=C\CCCCCCCC(=O)OCC`, the TGI with UACC-257 melanoma, in the test with CAKI-1 renal, with OVCAR-8 ovarian, with HOP-92 NSCLC, with KM12 colon and with HCT-116 colon was greater than 100 µM throughout. Moreover, the TGI in the test with UO-31 renal and with HCC-2998 colon was greater than 100 µM in each case.

On to `CCCCCCCCCc1cc(=O)c2ccc(O)cc2o1`, for which the TGI in the test with UACC-257 melanoma was greater than 100 µM; in the test on CAKI-1 renal it was 81.8 µM; in the test on OVCAR-8 ovarian, greater than 100 µM; with HOP-92 NSCLC it was 64.6 µM; with SNB-19 CNS, greater than 100 µM; in the test with KM12 colon, greater than 100 µM. Besides, the TGI in the test on HCT-116 colon and in the test with UO-31 renal was greater than 100 µM in each case.

For the compound `CSc1nc2c(nc(N)n2C2OCC(O)C(O)C2O)c(=O)n1C` (centres undefined), the TGI with UACC-257 melanoma, in the test with CAKI-1 renal, in the test on OVCAR-8 ovarian, in the test with HOP-92 NSCLC, in the test with SNB-19 CNS and in the test with KM12 colon was greater than 100 µM in each case. The TGI in the test with HCT-116 colon, with UO-31 renal and with HCC-2998 colon was greater than 100 µM in each case.

Take `Cn1nc(-c2ccccc2)c(C(=O)/C=C/c2ccccc2)c(N2CCOCC2)c1=O`: the TGI was greater than 100 µM with OVCAR-8 ovarian, 27.8 µM in the test with HOP-92 NSCLC, 32.8 µM with HCT-116 colon and 28.1 µM in the test with UO-31 renal.

With `CCOC(=O)NN1C(=O)C(=P(c2ccccc2)(c2ccccc2)c2ccccc2)C(C(=O)OCC)=C1C`, the TGI in the test on UACC-257 melanoma, in the test with CAKI-1 renal, in the test on OVCAR-8 ovarian, in the test with HOP-92 NSCLC, with SNB-19 CNS and in the test with KM12 colon was greater than 100 µM in each case. In addition, the TGI with HCT-116 colon, with UO-31 renal and in the test with HCC-2998 colon was greater than 100 µM in each case.

`S=c1[nH]c2ccc(Br)cc2c(=S)n1-c1ccccc1`: the TGI in the test on UACC-257 melanoma was 36.9 µM; in the test with CAKI-1 renal it was greater than 100 µM; with OVCAR-8 ovarian, greater than 100 µM; in the test on HOP-92 NSCLC, 78.5 µM; in the test with SNB-19 CNS, greater than 100 µM; with KM12 colon it was 72.5 µM. The TGI in the test on HCT-116 colon turned out to be 43.9 µM; in the test on UO-31 renal, 59 µM; with HCC-2998 colon, 40.8 µM.

Consider `CC1S(=O)(=O)OCCOS1(=O)=O`, for which the TGI in the test with UACC-257 melanoma, in the test on CAKI-1 renal, in the test on OVCAR-8 ovarian, with HOP-92 NSCLC, in the test with SNB-19 CNS and in the test on KM12 colon was greater than 100 µM in each case. Besides, the TGI with HCT-116 colon, with UO-31 renal and with HCC-2998 colon was greater than 100 µM throughout.

Regarding `Cc1cc(=O)oc2cc3c(cc12)Oc1ccccc1O3`, the TGI in the test on UACC-257 melanoma, in the test with OVCAR-8 ovarian, with HOP-92 NSCLC, with SNB-19 CNS, with KM12 colon and with HCT-116 colon was greater than 100 µM throughout. For the same compound, the values for the TGI in the test on UO-31 renal and with HCC-2998 colon were greater than 100 µM and greater than 10 µM, respectively.

Take `CCC12CCCC(=O)N1C(CO)C(c1ccccc1)O2` (centres undefined): the TGI in the test on UACC-257 melanoma, in the test on CAKI-1 renal, with OVCAR-8 ovarian, in the test on HOP-92 NSCLC, with SNB-19 CNS and with KM12 colon was greater than 100 µM in each case. In addition, the TGI with HCT-116 colon was greater than 100 µM.

Take `O=C(O)c1cc(=O)c2[nH]c3ccccc3c2s1`: the TGI with UACC-257 melanoma, in the test with CAKI-1 renal, in the test on OVCAR-8 ovarian, in the test on HOP-92 NSCLC, in the test with SNB-19 CNS and with KM12 colon was greater than 100 µM in each case. The TGI with UO-31 renal and in the test with HCC-2998 colon was greater than 100 µM throughout.

Consider `CC(=O)n1c2ccccc2c2nc3nc(Oc4ccc(C)cc4)c4ccccc4c3cc21`, for which the TGI in the test on UACC-257 melanoma, in the test on CAKI-1 renal, in the test on OVCAR-8 ovarian, in the test with SNB-19 CNS, in the test on KM12 colon and in the test on HCT-116 colon was greater than 100 µM in each case. Besides, the TGI with UO-31 renal and in the test with HCC-2998 colon was greater than 100 µM each time.

With `COc1cccc(C(=O)C2C(=O)N(C)CCc3ccccc32)c1OC` (centres undefined), the TGI with UACC-257 melanoma, with CAKI-1 renal, with OVCAR-8 ovarian, in the test on HOP-92 NSCLC, in the test with SNB-19 CNS and in the test with KM12 colon was greater than 100 µM in each case. For the same compound, the TGI in the test with HCT-116 colon and in the test with UO-31 renal was greater than 100 µM each time.

On to `COc1cc(/C=C/C(=O)c2sc(Nc3ccccc3)nc2C)ccc1O`, for which the TGI in the test on UACC-257 melanoma, in the test with CAKI-1 renal, with OVCAR-8 ovarian, in the test with HOP-92 NSCLC, in the test on SNB-19 CNS and in the test with KM12 colon was greater than 100 µM in each case. Besides, the TGI in the test with UO-31 renal and with HCC-2998 colon was greater than 100 µM in each case.

Turning to `O=c1cc(-c2ccccc2)c2cc3c(=O)ccoc3cc2o1`, the TGI with UACC-257 melanoma, in the test on OVCAR-8 ovarian, in the test with SNB-19 CNS, with HCT-116 colon, in the test on UO-31 renal and with HCC-2998 colon was greater than 100 µM throughout.

Take `Cc1ccc(NC(=O)/C(=N\Nc2ccc([N+](=O)[O-])cc2[N+](=O)[O-])C2C(=O)NC(=O)NC2=O)cc1`: the TGI with UACC-257 melanoma, with CAKI-1 renal, in the test on OVCAR-8 ovarian, with HOP-92 NSCLC, with SNB-19 CNS and in the test on KM12 colon was greater than 100 µM in each case. Also, the TGI with HCT-116 colon and with UO-31 renal was greater than 100 µM each time.
